The source of these data is article PMC7096398, “Oxytocin Receptors Regulate Social Preference in Zebrafish” (Scientific Reports, 2020).

One assay deals with T1, Avpr1ab (Danio rerio, UniProt A0A8M1P6E3).
T1 sequence (A0A8M1P6E3 1-410): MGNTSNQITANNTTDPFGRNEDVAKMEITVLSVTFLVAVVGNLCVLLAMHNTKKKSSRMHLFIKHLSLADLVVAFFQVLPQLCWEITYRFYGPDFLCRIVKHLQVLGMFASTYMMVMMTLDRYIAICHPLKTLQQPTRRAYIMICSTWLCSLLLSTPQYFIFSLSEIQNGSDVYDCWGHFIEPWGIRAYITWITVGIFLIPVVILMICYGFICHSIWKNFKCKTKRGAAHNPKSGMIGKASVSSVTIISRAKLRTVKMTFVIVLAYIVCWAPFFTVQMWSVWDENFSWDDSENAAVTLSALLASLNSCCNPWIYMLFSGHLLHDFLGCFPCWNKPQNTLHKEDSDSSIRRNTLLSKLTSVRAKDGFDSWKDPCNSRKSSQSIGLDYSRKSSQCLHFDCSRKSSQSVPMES
Kind of assay: Inositol phosphate accumulation assay, antagonism of 1 μM zVP at Avpr1ab. It is filed as cell-based, zebrafish. The settings on record: stimulated with agonist; antagonist up to 1 μM. The method, then: (§1) The receptor constructs were ordered from GeneScript and subcloned into a pcDNA3.1/CT-GFP-TOPO vector. The coding sequences of the GenBank entries NM_001199370.1 (oxtr), NM_001199369.1 (oxtrl), NM_001301114.1 (avpr1aa), and NM_001297676.1 (avpr1ab) were used for synthesis. The stop codons were removed, and an additional […] was added to facilitate hybrid protein expression with GFP in frame from the vector. The GCCACC Kozak sequence was inserted before the start codons. After transformation of the plasmid constructs into TOP10 competent cells (Thermo Fisher Scientific), the Maxiprep (Thermo Fisher Scientific) method was used to amplify the plasmids for transfection.
(§2) The Inositol phosphate accumulation assay was performed according to previous descriptions to measure the potency of different ligands for zebrafish different oxytocin related receptors. Each receptor construct was transfected into HEK293 cells using Lipofectamine 2000 (Thermo Fisher Scientific). Myo2-^3H-inositol (PerkinElmer) at 3 μCi/mL was added the day after transfection. […] Samples were mixed with OptiPhase HiSafe (PerkinElmer Waltham, MA, USA) and ^3H radioactivity was measured with a Tri-Carb 2910TR liquid scintillation counter (PerkinElmer Waltham, MA, USA). […]

The next assay concerns the target T2, Oxtrl (Danio rerio, UniProt E4W698).
T2 construct: host or cells: HEK293
T2 sequence (E4W698 1-382): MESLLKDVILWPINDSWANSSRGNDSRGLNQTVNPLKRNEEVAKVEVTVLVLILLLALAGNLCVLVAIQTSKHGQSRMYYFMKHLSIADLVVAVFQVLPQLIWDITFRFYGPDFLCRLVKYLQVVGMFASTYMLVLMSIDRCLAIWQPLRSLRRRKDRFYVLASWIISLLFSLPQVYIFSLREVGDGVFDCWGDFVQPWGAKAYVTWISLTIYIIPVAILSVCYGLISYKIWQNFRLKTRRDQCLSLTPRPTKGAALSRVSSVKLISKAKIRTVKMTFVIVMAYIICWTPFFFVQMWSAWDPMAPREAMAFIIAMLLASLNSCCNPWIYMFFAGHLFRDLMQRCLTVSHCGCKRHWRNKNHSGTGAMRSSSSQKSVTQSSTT
In words: Inositol phosphate accumulation assay, antagonism of 1 μM zVP at Oxtrl. It is filed as cell-based, zebrafish. The settings on record: stimulated with zVP. The method, then: as §1, §2

The test system of the next assay is rodents. The settings on record: cited from earlier work. The method, then: Intraperitoneal injections were conducted using a 1 mL U-100 BD MicroFine™ Insulin Syringe (Becton Dickinson France S.A.S., France). Post injection, animals were placed into their holding tanks for one hour to recover. […] Following this, focal fish were individually placed in the middle of the test tank and left ...

The test system of a further assay is zebrafish. Set-up: method as in 4 sources, ref 42 = [42]; PMID 21956239; doi:10.1007/s00213-011-2482-2; 42. Braida D Neurohypophyseal hormones manipulation modulate social and anxiety-related behavior in zebrafish Psychopharmacology (Berl) 2012 220 319 330 10.1007/s00213-011-2482-2 21956239 ||| ref 44 = [44]; PMID 27247142; doi:10.1016/j.bbr.2016.05.059; 44. Zimmermann FF Gaspary KV Siebel AM Bonan CD Oxytocin reversed MK-801-induced social interaction and aggression deficits in zebrafish Behav Brain Res 2016 311 368 374 10.1016/j.bbr.2016.05.059 2724 ||| ref 51 = [51]; doi:10.1163/1568539x-00003261; 51. Lindeyer CM Langen EMA Swaney WT Reader SM Nonapeptide influences on social behaviour: effects of vasotocin and isotocin on shoaling and interaction in zebrafish Behaviour 2015 152 897 915 10.1163 ||| ref 27 = [27]; PMID 26347614; doi:10.3389/fncir.2015.00039; 27. Dreosti E Lopes G Kampff AR Wilson SW Development of social behavior in young zebrafish Front Neural Circuits 2015 9 39 10.3389/fncir.2015.00039 26347614 PMC4539524. The settings on record: cited from earlier work. From the text:
Thus far, dopamine[56] and serotonin[57] in the mesolimbic system and excitation-inhibition balance[58] seem to play a prominent role in social investigation in rodents. Similarly, levels of dopamine and serotonin are modulated in socially interacting fish[59]–[61] and social preference behaviour decreases after treatment with a dopamine D1 receptor antagonist. […] In rodents, release of ... || (+ 1 further places)

Entries after “also recorded” stand apart in the source; their conditions may differ.

Regarding `Cc1ccccc1N1CCN(S(=O)(=O)C[C@]23CC[C@H](C[C@@H]2NC(=O)[C@@H](N)CCS(C)(=O)=O)C3(C)C)CC1` [L-368,899], on Avpr1ab, the “Antagonism at Avpr1ab, in words” value is “did not block the response and not and without reducing the effect of the peptide agonist”. Also, the “Antagonism at Oxtrl, in words” value at Oxtrl is reported as “able to block zVP activation; also recorded: specifically inhibited; also recorded: potently antagonised”. The “Behavioural effects one hour after treatment” value in the assay with rodents is listed as “robust behavioural effects”. For the same compound, the “Social preference, compound by itself” value with zebrafish (adult zebrafish) was “did not decrease social preference”. Besides, the “Social deficits following MK-801 exposure” value in the assay with zebrafish (zebrafish exposed to glutamate antagonist MK-801) is on record as “did not reverse those deficits”.
